Experiment in all cases: Affinity-purification and mass spectrometry (AP-MS) chemical proteomics, all proteins;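 on Difference: 200 µM free competitor with 20 µM biotin probe overnight in lysate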
Format in all cases: binding

The target in test [1] is T1, proteins displaced from immobilized biotin-Cmpd 1 pulldowns (U2OS cell lysate) (Homo sapiens, UniProt O15213).
T1 construct: endogenous in cells; host or cells: U2OS
Conditions: GN=WDR46 (O15213).

The target of test [2] is T2, proteins displaced from immobilized biotin-Cmpd 1 pulldowns (U2OS cell lysate) (Homo sapiens, UniProt P06733).
T2 construct: endogenous in cells; host or cells: U2OS
Conditions: GN=ENO1 (P06733).

The target in test [3] is T3, proteins displaced from immobilized biotin-Cmpd 1 pulldowns (U2OS cell lysate) (Homo sapiens, UniProt P56537).
T3 construct: endogenous in cells; host or cells: U2OS
The conditions noted are these: GN=EIF6 (P56537).

Test [4] concerns the target T4, proteins displaced from immobilized biotin-Cmpd 1 pulldowns (U2OS cell lysate) (Homo sapiens, UniProt P57678).
T4 construct: endogenous in cells; host or cells: U2OS
Conditions: GN=GEMIN4 (P57678).

Test [5] deals with T5, proteins displaced from immobilized biotin-Cmpd 1 pulldowns (U2OS cell lysate) (Homo sapiens, UniProt Q14980).
T5 construct: endogenous in cells; host or cells: U2OS
The conditions noted are these: GN=NUMA1 (Q14980).

Test [6] addresses T6, proteins displaced from immobilized biotin-Cmpd 1 pulldowns (U2OS cell lysate) (Homo sapiens, UniProt Q86UE4).
T6 construct: endogenous in cells; host or cells: U2OS
Conditions: GN=MTDH (Q86UE4).

In test [7] the target is T7, proteins displaced from immobilized biotin-Cmpd 1 pulldowns (U2OS cell lysate) (Homo sapiens, UniProt Q8WXX7).
T7 construct: endogenous in cells; host or cells: U2OS
The conditions noted are these: GN=AUTS2 (Q8WXX7).

The target in test [8] is T8, proteins displaced from immobilized biotin-Cmpd 1 pulldowns (U2OS cell lysate) (Homo sapiens, UniProt Q9BZG1).
T8 construct: endogenous in cells; host or cells: U2OS
The conditions noted are these: GN=RAB34 (Q9BZG1).

The target of test [9] is T9, proteins displaced from immobilized biotin-Cmpd 1 pulldowns (U2OS cell lysate) (Homo sapiens, UniProt Q9UKD2).
T9 construct: endogenous in cells; host or cells: U2OS
The conditions noted are these: GN=MRTO4 (Q9UKD2).

Test [10] concerns the target T10, proteins displaced from immobilized biotin-Cmpd 1 pulldowns (U2OS cell lysate) (Homo sapiens, UniProt Q9Y3C1).
T10 construct: endogenous in cells; host or cells: U2OS
The conditions noted are these: GN=NOP16 (Q9Y3C1).

The structures appear in SMILES notation. Values joined by “and” are separate entries in the source; they are usually repeats but may differ in a detail not shown here. Equal entries are not always repeated.

T1 sequence (O15213 whole entry): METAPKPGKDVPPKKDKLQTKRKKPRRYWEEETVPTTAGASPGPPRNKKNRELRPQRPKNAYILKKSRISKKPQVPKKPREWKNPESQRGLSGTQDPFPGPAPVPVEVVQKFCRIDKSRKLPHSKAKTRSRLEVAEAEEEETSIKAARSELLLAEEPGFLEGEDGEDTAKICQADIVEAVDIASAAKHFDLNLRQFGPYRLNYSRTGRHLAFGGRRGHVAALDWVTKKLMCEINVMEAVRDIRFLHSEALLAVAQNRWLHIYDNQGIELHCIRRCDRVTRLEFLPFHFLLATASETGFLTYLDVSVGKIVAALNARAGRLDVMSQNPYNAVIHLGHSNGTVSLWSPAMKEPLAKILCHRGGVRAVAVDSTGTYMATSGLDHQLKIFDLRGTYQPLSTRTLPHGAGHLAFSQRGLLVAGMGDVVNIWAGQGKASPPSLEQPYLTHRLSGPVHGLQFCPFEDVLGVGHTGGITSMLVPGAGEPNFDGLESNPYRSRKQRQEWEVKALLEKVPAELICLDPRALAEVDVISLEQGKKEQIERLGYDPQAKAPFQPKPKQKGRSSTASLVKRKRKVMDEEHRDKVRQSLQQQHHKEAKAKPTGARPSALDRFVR
T6 sequence (Q86UE4 whole entry): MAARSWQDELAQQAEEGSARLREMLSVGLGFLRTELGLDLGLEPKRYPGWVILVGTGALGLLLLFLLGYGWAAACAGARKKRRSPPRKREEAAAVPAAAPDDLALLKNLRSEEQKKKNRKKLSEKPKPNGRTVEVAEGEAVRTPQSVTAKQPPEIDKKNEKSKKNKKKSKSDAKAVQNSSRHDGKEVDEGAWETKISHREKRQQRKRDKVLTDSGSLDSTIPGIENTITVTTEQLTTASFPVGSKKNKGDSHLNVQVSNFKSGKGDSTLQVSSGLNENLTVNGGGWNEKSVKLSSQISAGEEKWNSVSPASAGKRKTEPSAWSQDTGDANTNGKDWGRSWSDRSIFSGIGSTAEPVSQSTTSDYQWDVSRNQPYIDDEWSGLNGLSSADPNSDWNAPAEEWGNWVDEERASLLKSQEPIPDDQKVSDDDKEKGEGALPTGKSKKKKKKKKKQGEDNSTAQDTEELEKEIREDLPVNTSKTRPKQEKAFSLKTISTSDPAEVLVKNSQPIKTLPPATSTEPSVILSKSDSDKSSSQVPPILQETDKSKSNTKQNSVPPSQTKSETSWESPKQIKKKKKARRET
T10 sequence (Q9Y3C1 whole entry): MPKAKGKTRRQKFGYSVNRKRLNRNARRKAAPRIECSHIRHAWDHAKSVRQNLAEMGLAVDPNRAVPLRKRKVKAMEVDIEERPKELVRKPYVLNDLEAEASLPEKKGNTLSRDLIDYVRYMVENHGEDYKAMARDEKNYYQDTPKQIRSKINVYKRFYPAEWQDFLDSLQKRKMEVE
T8 sequence (Q9BZG1 whole entry): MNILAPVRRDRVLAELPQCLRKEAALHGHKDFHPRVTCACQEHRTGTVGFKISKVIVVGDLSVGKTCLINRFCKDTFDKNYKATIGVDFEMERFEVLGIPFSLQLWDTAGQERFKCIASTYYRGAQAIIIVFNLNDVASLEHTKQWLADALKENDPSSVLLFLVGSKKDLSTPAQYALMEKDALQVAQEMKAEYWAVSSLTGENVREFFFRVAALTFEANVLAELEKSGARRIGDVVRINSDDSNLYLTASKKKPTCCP
T4 sequence (P57678 whole entry): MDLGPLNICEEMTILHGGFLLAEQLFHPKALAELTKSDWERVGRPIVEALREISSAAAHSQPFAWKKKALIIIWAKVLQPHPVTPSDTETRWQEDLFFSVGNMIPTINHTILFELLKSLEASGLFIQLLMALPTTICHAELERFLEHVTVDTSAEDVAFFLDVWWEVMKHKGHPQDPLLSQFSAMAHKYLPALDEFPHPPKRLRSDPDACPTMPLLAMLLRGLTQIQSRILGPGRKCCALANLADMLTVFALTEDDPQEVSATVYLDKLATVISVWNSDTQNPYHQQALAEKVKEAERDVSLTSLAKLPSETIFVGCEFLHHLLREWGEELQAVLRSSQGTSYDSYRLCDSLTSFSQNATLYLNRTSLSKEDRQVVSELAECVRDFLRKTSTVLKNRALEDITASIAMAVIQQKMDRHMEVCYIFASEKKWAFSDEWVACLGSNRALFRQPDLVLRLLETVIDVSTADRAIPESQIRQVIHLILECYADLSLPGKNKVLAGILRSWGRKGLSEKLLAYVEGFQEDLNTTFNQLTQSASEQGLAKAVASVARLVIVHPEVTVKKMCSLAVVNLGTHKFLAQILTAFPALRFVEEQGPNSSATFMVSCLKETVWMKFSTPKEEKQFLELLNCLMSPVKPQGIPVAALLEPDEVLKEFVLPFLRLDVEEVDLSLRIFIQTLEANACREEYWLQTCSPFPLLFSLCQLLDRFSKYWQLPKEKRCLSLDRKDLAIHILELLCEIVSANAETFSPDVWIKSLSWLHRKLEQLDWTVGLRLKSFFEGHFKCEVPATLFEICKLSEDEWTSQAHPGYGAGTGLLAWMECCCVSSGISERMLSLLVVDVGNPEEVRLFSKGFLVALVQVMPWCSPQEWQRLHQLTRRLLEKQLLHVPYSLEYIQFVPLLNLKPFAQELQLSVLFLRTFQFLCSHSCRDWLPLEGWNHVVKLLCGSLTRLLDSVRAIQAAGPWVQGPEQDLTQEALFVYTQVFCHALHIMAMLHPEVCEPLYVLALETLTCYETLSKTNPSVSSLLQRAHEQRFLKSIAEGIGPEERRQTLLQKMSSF
T5 sequence (Q14980 whole entry): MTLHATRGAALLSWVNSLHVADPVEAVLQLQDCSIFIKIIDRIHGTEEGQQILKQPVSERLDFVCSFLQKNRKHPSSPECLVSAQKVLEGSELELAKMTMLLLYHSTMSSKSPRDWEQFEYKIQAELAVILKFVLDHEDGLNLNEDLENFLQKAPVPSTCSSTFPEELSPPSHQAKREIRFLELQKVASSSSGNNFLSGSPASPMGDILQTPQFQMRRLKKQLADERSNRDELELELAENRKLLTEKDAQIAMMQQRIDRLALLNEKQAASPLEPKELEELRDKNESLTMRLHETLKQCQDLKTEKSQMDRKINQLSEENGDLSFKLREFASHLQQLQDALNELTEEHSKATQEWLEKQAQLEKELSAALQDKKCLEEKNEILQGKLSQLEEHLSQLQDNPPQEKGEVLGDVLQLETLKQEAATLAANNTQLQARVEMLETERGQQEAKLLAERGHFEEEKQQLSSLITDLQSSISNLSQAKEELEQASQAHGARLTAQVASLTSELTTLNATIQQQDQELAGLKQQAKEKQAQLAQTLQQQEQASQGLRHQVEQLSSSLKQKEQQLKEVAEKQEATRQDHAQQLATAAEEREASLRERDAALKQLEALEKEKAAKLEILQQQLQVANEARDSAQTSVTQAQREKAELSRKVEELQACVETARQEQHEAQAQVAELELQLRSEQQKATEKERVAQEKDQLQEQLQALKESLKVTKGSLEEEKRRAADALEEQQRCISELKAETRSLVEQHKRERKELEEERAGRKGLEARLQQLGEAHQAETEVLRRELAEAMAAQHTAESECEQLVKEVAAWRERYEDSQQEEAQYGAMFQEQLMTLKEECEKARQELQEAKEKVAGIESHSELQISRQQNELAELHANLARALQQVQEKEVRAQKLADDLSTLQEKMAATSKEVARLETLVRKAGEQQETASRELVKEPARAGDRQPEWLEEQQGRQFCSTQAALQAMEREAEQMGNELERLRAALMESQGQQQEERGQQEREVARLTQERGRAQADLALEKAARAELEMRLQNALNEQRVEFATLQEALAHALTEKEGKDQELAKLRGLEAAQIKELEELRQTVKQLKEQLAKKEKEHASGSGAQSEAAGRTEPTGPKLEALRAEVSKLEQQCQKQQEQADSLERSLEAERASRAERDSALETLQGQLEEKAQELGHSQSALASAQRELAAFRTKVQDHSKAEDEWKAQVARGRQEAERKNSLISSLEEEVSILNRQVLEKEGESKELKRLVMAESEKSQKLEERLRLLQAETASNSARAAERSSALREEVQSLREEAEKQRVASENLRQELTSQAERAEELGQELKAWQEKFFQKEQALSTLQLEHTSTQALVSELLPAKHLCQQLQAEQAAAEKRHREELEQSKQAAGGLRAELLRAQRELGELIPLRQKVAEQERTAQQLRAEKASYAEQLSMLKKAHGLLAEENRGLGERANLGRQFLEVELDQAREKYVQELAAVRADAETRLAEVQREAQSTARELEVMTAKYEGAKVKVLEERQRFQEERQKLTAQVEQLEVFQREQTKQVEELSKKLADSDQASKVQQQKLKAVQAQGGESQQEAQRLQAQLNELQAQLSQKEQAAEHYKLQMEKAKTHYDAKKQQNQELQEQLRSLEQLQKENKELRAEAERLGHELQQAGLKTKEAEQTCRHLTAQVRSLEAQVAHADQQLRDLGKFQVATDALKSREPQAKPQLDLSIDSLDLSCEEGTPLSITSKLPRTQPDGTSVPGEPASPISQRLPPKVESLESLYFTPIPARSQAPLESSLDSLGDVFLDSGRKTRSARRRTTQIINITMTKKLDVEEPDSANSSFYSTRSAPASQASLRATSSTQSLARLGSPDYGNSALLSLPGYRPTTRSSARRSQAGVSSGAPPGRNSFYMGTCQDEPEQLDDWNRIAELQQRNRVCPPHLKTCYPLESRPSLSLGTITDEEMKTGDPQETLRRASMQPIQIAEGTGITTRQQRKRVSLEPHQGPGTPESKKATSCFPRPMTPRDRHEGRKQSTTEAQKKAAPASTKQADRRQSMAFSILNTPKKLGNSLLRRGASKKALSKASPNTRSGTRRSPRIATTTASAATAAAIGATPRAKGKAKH

Regarding `Cn1c2c(c(=N)c3c1CCC3)CCC2` [Compound 1, 4-methyl-2,3,4,5,6,7-hexahydrodicyclopenta[b,e]pyridin-8(1H)-imine], the Difference in test [1] (Cmpd minus DMSO, -LOG(P-value) 1.25579) is reported as -1.697; in test [2] (Cmpd minus DMSO, -LOG(P-value) 1.38674) it was -0.4405; in [3] (Cmpd minus DMSO, -LOG(P-value) 0.868477), -1.064; in test [4] (Cmpd minus DMSO, -LOG(P-value) 1.57311), -2.921; in [5] (Cmpd minus DMSO, -LOG(P-value) 0.722853), 1.264; in [6] (Cmpd minus DMSO, -LOG(P-value) 1.04359), 0.4116. Moreover, the Difference amounted to 1.498 in test [7] (Cmpd minus DMSO, -LOG(P-value) 1.37908); 2.667 in test [8] (Cmpd minus DMSO, -LOG(P-value) 1.66704); 2.584 in [9] (Cmpd minus DMSO, -LOG(P-value) 1.00789); 3.378 in test [10] (Cmpd minus DMSO, -LOG(P-value) 0.713884). Moreover, the “iBAQ Cmpd” value in [1] (replicates 1-3) was 17.4002 and 17.0091 and 16.4289; in test [2] (replicates 1-3), 21.5649 and 21.7568 and 21.506; in [3] (replicates 1-3), 20.5029 and 19.445 and 19.2006; in test [4] (replicates 1-3), 14.9119 and 15.2101 and 14.5309; in test [5] (replicates 1-3) it was 20.9325 and 19.3521 and 19.3092; in test [6] (replicates 1-3), 19.4014 and 19.227 and 18.8879. Also, the “iBAQ Cmpd” value in [7] (replicates 1-3) was 16.2582 and 17.12 and 17.1513; in [8] (replicates 1-3), 18.8001 and 17.2488 and 16.5904; in test [9] (replicates 1-3), 18.8307 and 17.054 and 17.709; in test [10] (replicates 1-3), 19.623 and 19.0936 and 18.8692.

These data come from paper PMC9481570, “A small molecule antagonist of SMN disrupts the interaction between SMN and RNAP II” (Nature Communications, 2022).
